Reference: patent publication US20240254138A1, “TRICYCLIC PYRIMIDINES AS CYCLIN-DEPENDENT KINASE 7 (CDK7) INHIBITORS” (JANSSEN PHARMACEUTICA NV, priority 2021, published 2024)
Like-named read-outs stand apart in the source and are kept apart here.

Experiments:
[1] = system: RNA Polymerase II Serine 5 phosphorylation in A549 cells overexpressing CDK7-mutant (C312S); assay: Imaging-based cellular RNA PolII Ser5 phosphorylation assay in A549 cells overexpressing CDK7-mutant (C312S); format: cell-based, human; details: RNA PolII Ser5 phosphorylation, averaged over all measurements; for IC50: Homo sapiens, A549, A549 cells overexpressing CDK7-mutant (C312S), read-out: CDK7_A549 mutant hCDK7(pIC50) (converted); for CDK7_A549 mutant hCDK7(pIC50): A549 cells overexpressing CDK7-mutant (C312S)
How it was run: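 Readout was automated imaging of anti-phospho-Ser5 Rpb1 CTD immunofluorescence, with IC50 fitted to % control versus concentration. Cells were A549 stably overexpressing non-covalently targetable CDK7 C312S alongside wild-type, exposed to compound 3 h at 37 °C. DMSO and 10 μM reference compound served as controls.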

[2] = system: RNA Polymerase II Serine 5 phosphorylation (Rpb1 CTD, downstream substrate of CDK7) in A549 cells; assay: Imaging-based cellular RNA PolII Ser5 phosphorylation assay in A549 cells; format: cell-based, human; details: wild-type CDK7, RNA PolII Ser5 phosphorylation, averaged over all measurements; for IC50: Homo sapiens, A549, A549 cells, read-out: CDK7_A549 Wild-type CDK7 (pIC50) (converted); for CDK7_A549 Wild-type CDK7 (pIC50): A549 cells
How it was run: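 IC50 derived by fitting % control (DMSO high, 10 μM reference low) against concentration, with Hill slope. Readout: high-content imaging of phospho-Ser5 Rpb1 CTD antibody staining in fixed, permeabilized A549 cells exposed to compound 3 h after 20 h culture in 1% FBS DMEM.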

[3] = molecular target: CDK7/cyclinH/MAT1 trimeric complex (Homo sapiens, UniProt P50613); assay: In vitro CDK7 assay, potency of irreversible covalent inhibitors (kinact/KI), coupled PK/LDH ADP readout at 340 nm; details: for Ki: CDK7 (20 nM enz.) (KI, μM); for kinact: read-out: CDK7 (20 nM enz.) (kinact, s^−1), 20 nM enzyme
Chain of CDK7/cyclinH/MAT1 trimeric complex (P50613 whole entry): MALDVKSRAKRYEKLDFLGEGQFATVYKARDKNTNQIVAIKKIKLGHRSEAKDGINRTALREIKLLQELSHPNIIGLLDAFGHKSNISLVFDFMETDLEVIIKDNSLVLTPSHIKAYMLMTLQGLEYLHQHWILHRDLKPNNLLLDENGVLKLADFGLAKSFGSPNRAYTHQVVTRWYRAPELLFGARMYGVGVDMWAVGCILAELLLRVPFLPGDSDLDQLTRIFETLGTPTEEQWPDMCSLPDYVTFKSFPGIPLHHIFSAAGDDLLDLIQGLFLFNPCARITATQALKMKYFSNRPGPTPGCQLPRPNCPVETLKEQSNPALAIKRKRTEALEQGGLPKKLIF
Chain of CDK7/cyclinH/MAT1 trimeric complex (P51946 whole entry partner): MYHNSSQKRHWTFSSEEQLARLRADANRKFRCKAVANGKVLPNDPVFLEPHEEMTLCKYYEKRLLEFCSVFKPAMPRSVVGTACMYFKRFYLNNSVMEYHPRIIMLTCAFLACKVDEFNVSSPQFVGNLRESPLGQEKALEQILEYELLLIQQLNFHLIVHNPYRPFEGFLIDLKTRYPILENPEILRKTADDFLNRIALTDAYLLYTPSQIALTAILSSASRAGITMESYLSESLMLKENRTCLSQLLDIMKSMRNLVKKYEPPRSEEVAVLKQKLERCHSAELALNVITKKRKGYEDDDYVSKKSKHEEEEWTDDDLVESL
Chain of CDK7/cyclinH/MAT1 trimeric complex (P51948 whole entry partner): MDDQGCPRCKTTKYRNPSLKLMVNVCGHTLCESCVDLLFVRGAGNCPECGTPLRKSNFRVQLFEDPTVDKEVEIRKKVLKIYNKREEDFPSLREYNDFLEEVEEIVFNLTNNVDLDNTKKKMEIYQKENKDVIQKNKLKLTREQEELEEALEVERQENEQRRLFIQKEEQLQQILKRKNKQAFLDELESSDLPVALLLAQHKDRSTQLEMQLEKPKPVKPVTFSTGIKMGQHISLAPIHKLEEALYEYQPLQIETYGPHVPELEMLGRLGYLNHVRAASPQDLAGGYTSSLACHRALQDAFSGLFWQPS

[4] = read-out: CDK7 (20 nM enz.) (kinact/KI, M^−1*s^−1), 20 nM enzyme
[5] = read-out: CDK7 (20 nM enz.) (kobs/[I], M^−1*s^−1), 20 nM enzyme

CC#CC(=O)N1CCC(N2CC(c3cc4c(c(C5CC5)n3)OCc3c(N5CCOCC5)ccnc3N4)C2)CC1 [Compound 335]
IC50 [1]: 3630 nM | IC50 [2]: 55 nM | Ki ([3]; 20 nM enzyme): 0.0383 µM | kinact [3]: 1.86e-05 s⁻¹ | kinact/KI [3, 4]: 486 M⁻¹ s⁻¹

C=CC(=O)N1CCC(N2CC(c3cc4c(c(C5CC5)n3)OCc3c(N5CCOCC5)ccnc3N4)C2)CC1 [Compound 336]
IC50 [1]: 1320 nM | IC50 [2]: 49 nM | CDK7 (20 nM enz.) (kinact, s^−1) ([3]; 20 nM enzyme): 1.295e-05 s⁻¹ | CDK7 (20 nM enz.) (kinact/KI, M^−1*s^−1) ([3]; 20 nM enzyme): 229.663 M⁻¹ s⁻¹ | Ki ([3]; 20 nM enzyme): 0.0564 µM

C=CC(=O)N1CCC(N2CC(c3cc(C)c4c(c3)Nc3nccc(-c5cnn(C)c5)c3CO4)C2)CC1 [Compound 338]
CDK7_A549 mutant hCDK7(pIC50) [1]: 5.52 | CDK7_A549 Wild-type CDK7 (pIC50) [2]: 7.25 | CDK7 (20 nM enz.) (kinact/KI, M^−1*s^−1) ([3]; 20 nM enzyme): 299.026 M⁻¹ s⁻¹ | kinact [3]: 4.86e-05 s⁻¹

C=CC(=O)N1CC(N2CC(c3cc4c(c(C#N)n3)OCc3c(C5CCOCC5)ccnc3N4)C2)C1 [Compound 339]
IC50 [1]: > 10000 nM | IC50 [2]: 145 nM | Ki ([3]; 20 nM enzyme): 0.0746 µM | kinact [3]: 7.81e-05 s⁻¹ | kinact/KI [3, 4]: 1050 M⁻¹ s⁻¹

CC#CC(=O)N1CCC(N2CC(c3cc4c(c(C5CC5)n3)OCc3c(N5CCOCC5)ccnc3N4)C2)CC1 [Compound 340]
CDK7_A549 mutant hCDK7(pIC50) [1]: 5.43 | CDK7_A549 Wild-type CDK7 (pIC50) [2]: 7.37 | CDK7 (20 nM enz.) (kinact, s^−1) ([3]; 20 nM enzyme): 2.465e-05 s⁻¹ | CDK7 (20 nM enz.) (kinact/KI, M^−1*s^−1) ([3]; 20 nM enzyme): 507.473 M⁻¹ s⁻¹ | Ki ([3]; 20 nM enzyme): 0.0486 µM

C=CC(=O)N1CCC(N2CC(c3cc4c(c(C5CC5)n3)OCc3c(N5CCOCC5)ccnc3N4)C2)CC1 [Compound 341]
CDK7_A549 mutant hCDK7(pIC50) [1]: 5.64 | CDK7_A549 Wild-type CDK7 (pIC50) [2]: 7.35 | CDK7 (20 nM enz.) (kinact, s^−1) ([3]; 20 nM enzyme): 2.9e-05 s⁻¹ | CDK7 (20 nM enz.) (kinact/KI, M^−1*s^−1) ([3]; 20 nM enzyme): 655.075 M⁻¹ s⁻¹ | Ki ([3]; 20 nM enzyme): 0.0443 µM

C=CC(=O)N1CC(N2CCC(c3cc(C#N)c4c(c3)Nc3nccc(N5CCOCC5)c3C(C)O4)CC2)C1 (stereo not drawn) [Compound 342]
CDK7_A549 mutant hCDK7(pIC50) [1]: 5.18 | CDK7_A549 Wild-type CDK7 (pIC50) [2]: 7.85 | kinact/KI [3, 5]: 633 M⁻¹ s⁻¹

CC#CC(=O)N1CCC(N2CC(c3cc4c(c(CCC)n3)OCc3c(N5CCOCC5)ccnc3N4)C2)CC1 [Compound 347]
IC50 [1]: 5130 nM | IC50 [2]: 47.9 nM | Ki ([3]; 20 nM enzyme): 0.036 µM | kinact [3]: 2.84e-05 s⁻¹ | kinact/KI [3, 4]: 791 M⁻¹ s⁻¹

C=CC(=O)N1CCC(N2CC(c3cc4c(c(CCC)n3)OCc3c(N5CCOCC5)ccnc3N4)C2)CC1 [Compound 348]
IC50 [1]: 3090 nM | IC50 [2]: 47.9 nM | Ki ([3]; 20 nM enzyme): 0.0543 µM | kinact [3]: 5.99e-05 s⁻¹ | kinact/KI [3, 4]: 1100 M⁻¹ s⁻¹

C=C(C(=O)N1CCC(N2CC(c3cc4c(c(C)n3)OCc3c(-c5cnn(C)c5)ccnc3N4)C2)CC1)n1cccn1 [Compound 349]
IC50 [1]: 8320 nM | IC50 [2]: 97.7 nM | Ki ([3]; 20 nM enzyme): 0.0563 µM | kinact [3]: 3.25e-05 s⁻¹ | kinact/KI [3, 4]: 578 M⁻¹ s⁻¹

C=CC(=O)N1CC(N2CC(c3cc4c(c(CCC)n3)OCc3c(N5CCOCC5)ccnc3N4)C2)C1 [Compound 350]
IC50 [1]: 10000 nM | IC50 [2]: 81.3 nM | Ki ([3]; 20 nM enzyme): 0.025 µM | kinact [3]: 4.4e-05 s⁻¹ | kinact/KI [3, 4]: 1760 M⁻¹ s⁻¹

C=CC(=O)N1CC(N2CCC(c3cc(C#N)c4c(c3)Nc3nccc(N5CCOCC5)c3C(C)O4)CC2)C1 (stereo not drawn) [Compound 352]
CDK7_A549 mutant hCDK7(pIC50) [1]: 5.51 | CDK7_A549 Wild-type CDK7 (pIC50) [2]: 7.52 | Ki ([3]; 20 nM enzyme): 0.055 µM | kinact [3]: 5.53e-05 s⁻¹ | kinact/KI [3, 4]: 1010 M⁻¹ s⁻¹

C=CC(=O)N1CC(N2CC(c3cc4c(c(C(F)(F)F)n3)OCc3c(N5CCOCC5)ccnc3N4)C2)C1 [Compound 357]
CDK7_A549 mutant hCDK7(pIC50) [1]: 5.11 | CDK7_A549 Wild-type CDK7 (pIC50) [2]: 7.24 | CDK7 (20 nM enz.) (kobs/[I], M^−1*s^−1) ([3]; 20 nM enzyme): 2368.08 M⁻¹ s⁻¹

C=CC(=O)N1CCC(N2CC(c3cc4c(c(C(F)(F)F)n3)OCc3c(N5CCOCC5)ccnc3N4)C2)CC1 [Compound 359]
IC50 [1]: 2820 nM | IC50 [2]: 102 nM | CDK7 (20 nM enz.) (kinact/KI, M^−1*s^−1) ([3]; 20 nM enzyme): 994.882 M⁻¹ s⁻¹ | Ki ([3]; 20 nM enzyme): 0.028 µM | kinact [3]: 2.79e-05 s⁻¹

CC#CC(=O)N1CCC(N2CC(c3cc4c(c(-c5ncc[nH]5)n3)OCc3c(N5CCOCC5)ccnc3N4)C2)CC1 [Compound 364]
IC50 [1]: > 10000 nM | IC50 [2]: 162 nM | kinact/KI [3, 5]: 464 M⁻¹ s⁻¹

C=CC(=O)N1CCC(N2CC(c3cc4c(c(-c5ncc[nH]5)n3)OCc3c(N5CCOCC5)ccnc3N4)C2)CC1 [Compound 366]
IC50 [1]: 10700 nM | IC50 [2]: 209 nM | kinact/KI [3, 5]: 339 M⁻¹ s⁻¹

C=CC(=O)N1CC(N2CCC(c3cc4c(c(C)n3)OCc3c(N5CCOCC5)ccnc3N4)N(C)CC2)C1 (stereo not drawn) [Compound 367]
IC50 [1]: 10500 nM | IC50 [2]: 75.9 nM | Ki ([3]; 20 nM enzyme): 0.0482 µM | kinact [3]: 3.37e-05 s⁻¹ | kinact/KI [3, 4]: 698 M⁻¹ s⁻¹

CC#CC(=O)N1CC(N2CC(c3cc4c(c(CCC)n3)OCc3c(N5CCOCC5)ccnc3N4)C2)C1 [Compound 368]
IC50 [1]: > 10000 nM | IC50 [2]: 191 nM | Ki ([3]; 20 nM enzyme): 0.103 µM | kinact [3]: 4.43e-05 s⁻¹ | kinact/KI [3, 4]: 429 M⁻¹ s⁻¹

CC#CC(=O)N1CC(N2CCC(c3cc4c(c(C)n3)OCc3c(N5CCOCC5)ccnc3N4)N(C)CC2)C1 (stereo not drawn) [Compound 373]
IC50 [1]: > 10000 nM | IC50 [2]: 269 nM | Ki ([3]; 20 nM enzyme): 0.113 µM | kinact [3]: 1.66e-05 s⁻¹ | kinact/KI [3, 4]: 147 M⁻¹ s⁻¹

C=CC(=O)N1CCC(n2cc(-c3cc(C)c4c(c3)Nc3nccc(N5CCOCC5)c3CO4)cn2)CC1 [Compound 379]
IC50 [1]: 7080 nM | IC50 [2]: 224 nM | Ki ([3]; 20 nM enzyme): 0.0333 µM | kinact [3]: 1.58e-05 s⁻¹ | kinact/KI [3, 4]: 475 M⁻¹ s⁻¹

CC#CC(=O)N1CC(n2cc(-c3cc4c(c(C)n3)OC(C)c3c(N5CCOCC5)ccnc3N4)cn2)C1 (stereo not drawn) [Compound 380]
IC50 [1]: > 10000 nM | IC50 [2]: 162 nM | Ki ([3]; 20 nM enzyme): 0.241 µM | kinact [3]: 4.27e-05 s⁻¹ | kinact/KI [3, 4]: 177 M⁻¹ s⁻¹

C=CC(=O)N1CCC(N2CCN(c3ccc4c(c3)Nc3nccc(N5CCOCC5)c3CO4)CC2)CC1 [Compound 382]
IC50 [1]: > 10000 nM | IC50 [2]: 204 nM | Ki ([3]; 20 nM enzyme): 3.26 µM | kinact [3]: 4.7e-05 s⁻¹ | kinact/KI [3, 4]: 14.4 M⁻¹ s⁻¹

C=CC(=O)N1CCC(N2CC(c3cc4c(c(C#N)n3)OCc3c(N5CCOCC5)ccnc3N4)C2)CC1 [Compound 384]
IC50 [1]: 5130 nM | IC50 [2]: 355 nM | Ki ([3]; 20 nM enzyme): 0.03 µM | kinact [3]: 7.49e-06 s⁻¹ | kinact/KI [3, 4]: 249 M⁻¹ s⁻¹

CC#CC(=O)N1CCC(N2CC(c3cc4c(c(C#N)n3)OCc3c(N5CCOCC5)ccnc3N4)C2)CC1 [Compound 385]
IC50 [1]: 4270 nM | IC50 [2]: 158 nM | Ki ([3]; 20 nM enzyme): 0.0211 µM | kinact [3]: 1.2e-05 s⁻¹ | kinact/KI [3, 4]: 570 M⁻¹ s⁻¹

C=CC(=O)N1CCC(N2CCN(c3cc4c(c(C)n3)OCc3c(N5CCOCC5)ccnc3N4)CC2)CC1 [Compound 389]
IC50 [1]: > 10000 nM | IC50 [2]: 141 nM | Ki ([3]; 20 nM enzyme): 0.0199 µM | kinact [3]: 2.13e-05 s⁻¹ | kinact/KI [3, 4]: 1070 M⁻¹ s⁻¹

C=CC(=O)N1CCN(C2CCN(c3cc4c(c(C)n3)OCc3c(N5CCOCC5)ccnc3N4)CC2)CC1 [Compound 391]
IC50 [1]: > 10000 nM | IC50 [2]: ~61.7 nM | Ki ([3]; 20 nM enzyme): 0.0205 µM | kinact [3]: 2.25e-05 s⁻¹ | kinact/KI [3, 4]: 1100 M⁻¹ s⁻¹

CC#CC(=O)N1CCC(N2CCN(c3cc4c(c(C)n3)OCc3c(N5CCOCC5)ccnc3N4)CC2)CC1 [Compound 393]
IC50 [1]: > 10000 nM | IC50 [2]: 105 nM | Ki ([3]; 20 nM enzyme): 0.0477 µM | kinact [3]: 2.18e-05 s⁻¹ | kinact/KI [3, 4]: 457 M⁻¹ s⁻¹
